The results in this text go back to patent publication EP2925336B1, “NATURAL COMPOUNDS FOR USE IN THE TREATMENT OF BETA-2 ADRENERGIC RECEPTOR RELATED DISEASES” (Harmonic Pharma, priority 2012, dated 2014).

Each structure is given as a SMILES string.

Test [1] deals with human β2-adrenergic receptor (Homo sapiens, UniProt P07550). Put plainly: agonist effect on the human β2-adrenergic receptor, cellular cAMP accumulation assay (HTRF). It is filed as cell-based. The following applies: recombinant CHO cells; for EC50: 30 minutes at room temperature, read-out: ECso; for β2 adrenergic receptor agonist activity: summary in words. An excerpt:
We then have tested the in vitro activity of (-)-hydroxymatairesinol (two epimers; 7S,8R,8'R and 7R,8R,8'R), (-)(7S,8R,8'R)-hydroxymatairesinol, (+)-lariciresinol, (-)-secoisolariciresinol, knot-wood extracts of Picea abies and Abies alba against β2-adrenergic receptor, in a cellular based assay, according to the Table 1 below (Baker J.G. (2005), Brit. J. Pharmacol., 144: 317). Table 1: Test of the agonist effect of compounds on the human β2-adrenergic receptor
Mammalian recombinant cells (CHO cells) stably expressing human β2-adrenergic receptor were suspended in HBSS buffer (Invitrogen) complemented with 20 mM HEPES (pH 7.4) and 500 µM IBMX, then distributed in microplates at a density of 10^4 cells/well and incubated for 30 min at room temperature in the presence of HBSS (basal control), the test compound or the reference agonist. For stimulated control measurement, separate assay wells contained 100 nM isoproterenol. Following incubation, the cells were lysed and the fluorescence acceptor (D2-labeled cAMP) and fluorescence donor (anti-cAMP antibody labeled with europium cryptate) were added. After 60 min at room temperature, the fluorescence transfer was measured at λex=337 nm and λem=620 and 665 nm using a microplate reader (Rubystar, BMG). The cAMP concentration was determined by dividing the signal measured at 665 nm by that measured at 620 nm (ratio). Results are expressed as a percent of the control response to 100 nM isoproterenol. The standard reference agonist is isoproterenol, which was tested in each experiment at several concentrations to generate a concentration-response curve from which its EC50 value was calculated.
The knot-wood extract for use of the invention as well as the lignans for use of the invention were tested at a concentration of 10^-5 M. Results are presented in Figure 4, and are expressed as a percentage of control agonist response, wherein 100% corresponds to the agonist response measured when cells are treated with 0.1 µM isoproterenol.
Then, we measured the corresponding EC50. EC50 represents the half maximal effective concentration, and refers to the concentration of a compound which induces a response halfway between the baseline and maximum.

Test [2] deals with TNF-α. Description: elastase lung injury model, TNF-α in bronchoalveolar lavage fluid (ELISA). The format is in vivo, mice. The following applies: elastase group vs control group; HMR 30 mg/kg intratracheal instillation 15 min before elastase; BAL fluid after 24 hours; p < 0.05. As to the method:
(§1) Male C57B1/6 WT mice (n=35) weighing between 20 and 25 g and aged of 8 weeks were obtained from Janvier Labs (Saint Berthevin, France) and were housed in the animal facility of the laboratory, with free access to water and food, for at least 1 week before the beginning of the experimentation.
(§2) The mice were randomly divided into six groups (n = 5-6/group). At t=0, mice were submitted to intratracheal instillation with lignan of the invention (HMR with a purity of 95%, 30 mg/kg body wt dissolved in PBS containing 1% DMSO) or with PBS with 1% DMSO. At t=15 min, mice were submitted to instillation either with 30 µl of elastase (1UI diluted in PBS) or 30 µl of LPS (10 µg/ml diluted in PBS) or 30 µl of PBS containing 1% DMSO. Mice were anesthetized with 150 µl of a solution containing xylazine 10% and ketamine 10% and sacrificed after 24 hours, and the bronchoalveolar lavage (BAL) fluid was collected for subsequent analyses.
(§3) Lungs were washed twice with 1ml of PBS then centrifuged at 10,000 rpm at 4°C for 10 min, and the resulting supernatant of the BAL was aliquoted as 210 µl samples and used for TNF-α cytokine protein quantification using an ELISA kit (mouse TNF-alpha DuoSet; R&D Systems Europe, Ltd., France).
(In an ELISA, binding on a coated surface is turned into a signal by an enzyme label.)

In test [3] the test system is TNF-α. Description: cigarette smoke-induced lung injury model, TNF-α in bronchoalveolar lavage fluid (ELISA). The format is in vivo. The following applies: mice exposed to cigarette smoke vs non-treated mice; HMR 30 mg/kg intratracheal instillation daily for 4 days; BAL fluid at day 5; p < 0.05. As for the experimental part:
Male C57B1/6 WT mice (n=36) weighting between 20 and 25 g and aged of 9 weeks were obtained from Janvier Labs (Saint Berthevin, France) and were housed in the animal facility of the laboratory, with free access to water and food, for at least 1 week before the beginning of the experimentation.
The mice were randomly divided into six groups (n = 6/group). Mice were submitted to intratracheal instillation with 50 µl lignan of the invention (HMR with a purity of 95%, 30 mg/kg body wt dissolved in PBS containing 5%DMSO) or with PBS with 5% DMSO daily: After 3 hours mice were exposed to ambient air (AA) or to cigarette smoke (CS; 18 cigarettes per hour) for 3 hours.
This procedure was repeated 4 days. Mice were anesthetized with 250 µl of a solution containing xylazine 10% and ketamine 10% and were sacrificed at day 5. The BAL fluid was collected for analyses.
Lungs were washed twice with 1ml of PBS then centrifuged at 10,000 rpm at 4°C for 10 min, and the resulting supernatant of the BAL was aliquoted as 210 µl samples and used for TNF-α cytokine protein quantification using an ELISA kit (mouse TNFalpha DuoSet; R&D Systems Europe, Ltd., France).

In test [4] the test system is TNF-α. Description: LPS lung injury model, TNF-α in bronchoalveolar lavage fluid (ELISA). The following applies: LPS group vs control group; HMR 30 mg/kg intratracheal instillation 15 min before LPS; BAL fluid after 24 hours; p < 0.05. It is filed as in vivo, mice. As to the method:
as §1, §2, §3

Sequence of human β2-adrenergic receptor (P07550 whole entry): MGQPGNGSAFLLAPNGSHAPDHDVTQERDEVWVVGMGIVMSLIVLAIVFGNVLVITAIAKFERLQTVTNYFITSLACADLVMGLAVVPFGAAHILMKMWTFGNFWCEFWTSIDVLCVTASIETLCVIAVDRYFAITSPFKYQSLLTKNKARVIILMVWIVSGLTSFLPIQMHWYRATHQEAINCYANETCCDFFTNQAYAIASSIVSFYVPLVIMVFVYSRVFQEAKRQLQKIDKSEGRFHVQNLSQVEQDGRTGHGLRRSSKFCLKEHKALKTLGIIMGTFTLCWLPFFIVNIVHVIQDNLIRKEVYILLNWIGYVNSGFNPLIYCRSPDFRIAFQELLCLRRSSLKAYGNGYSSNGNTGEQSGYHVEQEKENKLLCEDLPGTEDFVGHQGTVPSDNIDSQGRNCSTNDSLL

Regarding `COc1cc(CC2C(=O)OCC2C(O)c2ccc(O)c(OC)c2)ccc1O` (single isomer, unassigned; (-)) [HMR2], in test [1], the EC50 is 1500 nM and the “β2 adrenergic receptor agonist activity” value is on record as “strong β2 adrenergic receptor agonist activity”.

As to `COc1cc(C[C@@H](CO)[C@H](CO)Cc2ccc(O)c(OC)c2)ccc1O` [Seco, (-)-Secoisolariciresinol], in test [1], the EC50 came out at 2500 nM and the “β2 adrenergic receptor agonist activity” value was “strong β2 adrenergic receptor agonist activity”.

Regarding `COc1cc(C[C@H]2CO[C@H](c3ccc(O)c(OC)c3)[C@H]2CO)ccc1O` [Lari, (+)-lariciresinol], in test [1], the EC50 turned out to be 1700 nM and the “β2 adrenergic receptor agonist activity” value was “strong β2 adrenergic receptor agonist activity”.

Turning to `COc1cc(C[C@H]2C(=O)OC[C@@H]2C(O)c2ccc(O)c(OC)c2)ccc1O` (mixture of isomers) [HMR, (-) hydroxymatairesinol (2 epimers: 7S,8R,8'R and 7R,8R,8'R)], the “level of TNF-α” value is “significantly reduced” in the test with TNF-α [2], “significant reduced level” with TNF-α [3] and “significantly reduced” in the test with TNF-α [4]. Also, the EC50 in test [1] stood at 350 nM. Further, the “β2 adrenergic receptor agonist activity” value in test [1] is “strong β2 adrenergic receptor agonist activity”.
